Experimental data as given in PubChem BioAssay (NCI).
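Where inhibition never reached the appropriate level, the endpoint shown equals the highest concentration tested. Otherwise, values were interpolated linearly from a five-concentration, 48-hour dose response in 96-well plates. TGI: concentration producing complete growth inhibition.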

Key:
Assay in all cases: NCI-60 cell line screen, 48 h
[1] = test system: K-562 leukemia
[2] = test system: LOX IMVI melanoma
[3] = test system: LXFL 529 NSCLC
[4] = test system: MALME-3M melanoma
[5] = test system: HOP-62 NSCLC
[6] = test system: SN12C renal
[7] = test system: MOLT-4 leukemia
[8] = test system: SF-295 CNS
[9] = test system: EKVX NSCLC
[10] = test system: UACC-257 melanoma
[11] = test system: A498 renal
[12] = test system: NCI-H460 lung
[13] = test system: M19-MEL melanoma
[14] = test system: COLO 205 colon
[15] = test system: OVCAR-5 ovarian
[16] = test system: HCT-15 colon
[17] = test system: HOP-92 NSCLC
[18] = test system: SK-MEL-2 melanoma
[19] = test system: SR leukemia
[20] = test system: SW-620 colon
[21] = test system: HL-60(TB) leukemia
[22] = test system: OVCAR-8 ovarian
[23] = test system: OVCAR-4 ovarian
[24] = test system: UACC-62 melanoma
[25] = test system: NCI-H522 lung
[26] = test system: TK-10 renal
[27] = test system: SNB-78 CNS
[28] = test system: SK-OV-3 ovarian
[29] = test system: UO-31 renal
[30] = test system: DMS 273 small cell lung
[31] = test system: SNB-75 CNS
[32] = test system: HCT-116 colon
[33] = test system: HT29 colon
[34] = test system: KM12 colon
[35] = test system: HOP-18 NSCLC
[36] = test system: CCRF-CEM leukemia
[37] = test system: DLD-1 colon
[38] = test system: M14 melanoma
[39] = test system: KM20L2 colon
[40] = test system: OVCAR-3 ovarian
[41] = test system: NCI-H226 lung
[42] = test system: RPMI-8226 leukemia
[43] = test system: ACHN renal
[44] = test system: U251 CNS
[45] = test system: 786-0 renal
[46] = test system: SNB-19 CNS
[47] = test system: RXF 393 renal
[48] = test system: SF-268 CNS
[49] = test system: SF-539 CNS
[50] = test system: DMS 114 small cell lung
[51] = test system: CAKI-1 renal
[52] = test system: A549 NSCLC
[53] = test system: NCI-H23 lung
[54] = test system: SK-MEL-28 melanoma
[55] = test system: HCC-2998 colon
[56] = test system: XF 498 CNS
[57] = test system: SK-MEL-5 melanoma
[58] = test system: MDA-N
[59] = test system: MDA-MB-435
[60] = test system: BT-549 breast
[61] = test system: MDA-MB-231 breast
[62] = test system: NCI/ADR-RES ovarian
[63] = test system: MCF7 breast
[64] = test system: DU-145 prostate
[65] = test system: T-47D breast
[66] = test system: HS 578T breast
[67] = test system: IGROV1 ovarian
[68] = test system: PC-3 prostate

`COC(=O)C(=O)C(C(=O)C(=O)Nc1ccc([N+](=O)[O-])cc1C#N)c1nc2ccc([N+](=O)[O-])cc2[nH]c1=O` (stereo unspecified) was tested. Which TGI [1] did it give?
Its TGI is over 100 µM.

What about the TGI [2] of the same compound?
Its TGI is over 100 µM.

What about the TGI [3] of the same compound?
The TGI was over 100 µM.

What about the TGI [4] of the same compound?
The TGI was over 100 µM.

And the TGI [5]?
Its TGI is over 100 µM.

What about the TGI [6] of the same compound?
Its TGI is over 100 µM.

What about the TGI [7] of the same compound?
The TGI was over 100 µM.

And the TGI [8]?
The TGI was over 100 µM.

What about the TGI [9] of the same compound?
Its TGI is over 100 µM.

And the TGI [10]?
The TGI was over 100 µM.

What about the TGI [11] of the same compound?
Its TGI is over 100 µM.

What about the TGI [12] of the same compound?
The TGI was over 100 µM.

What about the TGI [13] of the same compound?
Its TGI is over 100 µM.

What about the TGI [14] of the same compound?
The TGI was over 100 µM.

What about the TGI [15] of the same compound?
Its TGI is over 100 µM.

What about the TGI [16] of the same compound?
The TGI was over 100 µM.

And the TGI [17]?
The TGI was over 100 µM.

What about the TGI [18] of the same compound?
Its TGI is over 100 µM.

And the TGI [19]?
Its TGI is over 100 µM.

What about the TGI [20] of the same compound?
Its TGI is over 100 µM.

What about the TGI [21] of the same compound?
Its TGI is over 100 µM.

And the TGI [22]?
The TGI was over 100 µM.

What about the TGI [23] of the same compound?
The TGI was over 100 µM.

And the TGI [24]?
Its TGI is over 100 µM.

What about the TGI [25] of the same compound?
The TGI was over 100 µM.

And the TGI [26]?
The TGI was over 100 µM.

What about the TGI [27] of the same compound?
Its TGI is over 100 µM.

And the TGI [28]?
The TGI was over 100 µM.

What about the TGI [29] of the same compound?
The TGI was over 100 µM.

What about the TGI [30] of the same compound?
Its TGI is over 100 µM.

What about the TGI [31] of the same compound?
The TGI was over 100 µM.

What about the TGI [32] of the same compound?
Its TGI is over 100 µM.

What about the TGI [33] of the same compound?
The TGI was over 100 µM.

What about the TGI [34] of the same compound?
Its TGI is over 100 µM.

What about the TGI [35] of the same compound?
The TGI was over 100 µM.

What about the TGI [36] of the same compound?
The TGI was over 100 µM.

And the TGI [37]?
The TGI was over 100 µM.

And the TGI [38]?
The TGI was over 100 µM.

And the TGI [39]?
Its TGI is over 100 µM.

What about the TGI [40] of the same compound?
The TGI was over 100 µM.

What about the TGI [41] of the same compound?
The TGI was over 100 µM.

What about the TGI [42] of the same compound?
Its TGI is over 100 µM.

And the TGI [43]?
Its TGI is over 100 µM.

What about the TGI [44] of the same compound?
Its TGI is over 100 µM.

And the TGI [45]?
The TGI was over 100 µM.

And the TGI [46]?
The TGI was over 100 µM.

And the TGI [47]?
Its TGI is over 100 µM.

And the TGI [48]?
The TGI was over 100 µM.

And the TGI [49]?
Its TGI is over 100 µM.

What about the TGI [50] of the same compound?
Its TGI is over 100 µM.

And the TGI [51]?
The TGI was over 100 µM.

And the TGI [52]?
Its TGI is over 100 µM.

Which results are given for `C#Cc1cccc(N2C(=O)CC(=P(c3ccccc3)(c3ccccc3)c3ccccc3)C2=O)c1`?
TGI [53]: > 100 µM; TGI [1]: > 100 µM; TGI [54]: > 100 µM; TGI [3]: > 100 µM; TGI [4]: > 100 µM; TGI [5]: > 100 µM; TGI [55]: > 100 µM; TGI [6]: > 100 µM; TGI [7]: > 100 µM; TGI [8]: > 100 µM; TGI [9]: > 100 µM; TGI [10]: > 100 µM; TGI [11]: > 100 µM; TGI [12]: > 100 µM; TGI [13]: > 100 µM; TGI [14]: > 100 µM; TGI [15]: > 100 µM; TGI [18]: > 100 µM; TGI [19]: > 100 µM; TGI [20]: > 100 µM; TGI [21]: 38.2 µM; TGI [22]: > 100 µM; TGI [56]: 38.8 µM; TGI [23]: > 100 µM; TGI [57]: 83.7 µM; TGI [24]: > 100 µM; TGI [25]: > 100 µM; TGI [26]: > 100 µM; TGI [27]: > 100 µM; TGI [28]: > 100 µM; TGI [29]: > 100 µM; TGI [31]: > 100 µM; TGI [32]: > 100 µM; TGI [33]: > 100 µM; TGI [36]: > 100 µM; TGI [37]: > 100 µM; TGI [38]: > 100 µM; TGI [40]: > 100 µM; TGI [41]: > 100 µM; TGI [42]: 63.2 µM; TGI [43]: > 100 µM; TGI [44]: > 100 µM; TGI [45]: 75.7 µM; TGI [46]: > 100 µM; TGI [48]: > 100 µM; TGI [50]: 72.6 µM; TGI [51]: > 100 µM; TGI [52]: > 100 µM

Which results are given for `NC(Cc1ccc2oc3cc(=O)c4ccccc4c-3nc2c1)C(=O)O` (stereo unspecified)?
TGI [53]: 16.3 µM; TGI [58]: 14.8 µM; TGI [1]: 77.1 µM; TGI [2]: 44.1 µM; TGI [54]: 59 µM; TGI [3]: > 100 µM; TGI [4]: 17.6 µM; TGI [5]: 76.3 µM; TGI [55]: 40.2 µM; TGI [6]: 39.5 µM; TGI [7]: > 88.3 µM; TGI [8]: 55.5 µM; TGI [9]: > 100 µM; TGI [10]: 39.3 µM; TGI [11]: > 84.6 µM; TGI [59]: 12.2 µM; TGI [12]: 32 µM; TGI [14]: 21.5 µM; TGI [15]: > 87.6 µM; TGI [60]: 40.5 µM; TGI [16]: > 88.3 µM; TGI [17]: > 100 µM; TGI [61]: > 100 µM; TGI [18]: 74.3 µM; TGI [62]: > 100 µM; TGI [19]: 67.6 µM; TGI [20]: 80.9 µM; TGI [21]: 76.2 µM; TGI [22]: > 100 µM; TGI [23]: > 88.9 µM; TGI [63]: 11.2 µM; TGI [57]: 11.5 µM; TGI [24]: 22.5 µM; TGI [25]: 77.7 µM; TGI [26]: > 97.2 µM; TGI [27]: > 100 µM; TGI [64]: 32 µM; TGI [28]: > 100 µM; TGI [29]: > 100 µM; TGI [30]: > 60.1 µM; TGI [31]: 29.7 µM; TGI [32]: 76.8 µM; TGI [33]: 72.6 µM; TGI [34]: > 100 µM; TGI [35]: 77.7 µM; TGI [36]: 71.1 µM; TGI [65]: > 84.7 µM; TGI [37]: > 66.6 µM; TGI [38]: 30.1 µM; TGI [39]: > 100 µM; TGI [40]: 81.5 µM; TGI [41]: 73.1 µM; TGI [66]: 59.6 µM; TGI [42]: > 88.3 µM; TGI [67]: > 100 µM; TGI [43]: > 100 µM; TGI [44]: > 87.1 µM; TGI [68]: > 100 µM; TGI [45]: > 100 µM; TGI [46]: > 97.7 µM; TGI [47]: 99.8 µM; TGI [48]: > 100 µM; TGI [49]: 54.6 µM; TGI [50]: 41.1 µM; TGI [51]: > 97.7 µM; TGI [52]: 62.5 µM
